{
  "source": "patent US11992497B2",
  "about": "(priority 2021, dated 2024)",
  "assay_in_all_cases": "UGT reaction phenotyping, recombinant Supersomes",
  "key": {"UGT2B15": {"target": "T1, UGT2B15 (Homo sapiens, UniProt P54855)", "T1 sequence (P54855 24-530)": "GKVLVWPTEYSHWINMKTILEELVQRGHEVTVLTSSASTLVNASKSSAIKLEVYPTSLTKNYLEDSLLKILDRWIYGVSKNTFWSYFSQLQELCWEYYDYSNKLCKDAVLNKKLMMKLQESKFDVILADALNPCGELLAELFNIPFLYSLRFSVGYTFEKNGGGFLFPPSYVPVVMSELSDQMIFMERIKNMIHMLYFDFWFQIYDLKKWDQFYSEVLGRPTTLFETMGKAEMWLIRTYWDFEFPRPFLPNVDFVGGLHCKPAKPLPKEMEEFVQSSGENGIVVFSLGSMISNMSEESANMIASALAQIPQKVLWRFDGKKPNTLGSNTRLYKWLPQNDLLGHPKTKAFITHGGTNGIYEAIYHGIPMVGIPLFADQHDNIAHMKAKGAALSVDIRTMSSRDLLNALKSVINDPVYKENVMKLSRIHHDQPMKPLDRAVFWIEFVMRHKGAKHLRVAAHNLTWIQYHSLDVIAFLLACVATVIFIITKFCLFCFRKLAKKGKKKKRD", "settings": "recombinant enzyme, pH 7.4", "procedure": "(§1) Experimental Summary: UGT Reaction Phenotyping (7 Isoforms).\n(§2) Experimental Procedure: cDNA expressed human UGT enzyme preparations (Supersomes) supplied by BD Biosciences were obtained and stored at −80° C. prior to use. The specific isoforms were chosen by the performing laboratory based on published guidelines. They are considered the clinically relevant of the UGT isoforms (E. Kasteel et al. Human variability in isoform-specific UDP-glucuronosyltransferases: markers of acute and chronic exposure, polymorphisms and uncertainty factors. Arch Toxicol. 2020; 94(8): 2637-2661)\n(§3) Supersomes in 0.1 M Tris buffer pH 7.4, alamethicin (44.6 μg/mL) and test compound (final concentration of 5 μM; final DMSO concentration ≤0.1%) were pre-incubated at 37° C. prior to the addition of UDGPA (final concentration 2 mM) to initiate the reaction. Incubations were also performed using control Supersomes (no UGT enzymes present) to reveal any non-enzymatic degradation. Compounds known to be metabolized specifically by each UGT isoform were used as control compounds (7-hydroxy-4-trifluoromethylcoumarin, all but UGT1A4, or trifluoperazine for UGT1A4).\n(§4) CBG or Compound 1 were incubated in duplicate for 0, 10, 20, 40 and 60 min with each isoform. The reactions were stopped by the addition of methanol containing an analytical internal standard at the time points specified in the table above. Stopped reactions were kept on ice for at least ten minutes and the samples were centrifuged to remove precipitated protein. Supernatants were analyzed by LC-MS/MS methodology developed by the performing laboratory to quantitate the parent remaining.\n(§5) The change in CBG concentration were used to calculate the Half life (t1/2 in min) and the intrinsic clearance ([…]) as shown in the following table (S. C, Khojasteh et.al., Drug Metabolism and Pharmacokinetics Quick Guide, Springer, NY, 2011), Intrinsic Clearance (CIint) is a measure of the ability of hepatocytes to eliminate drug irrespective other factors such as blood flow or protein binding. The calculations were the same as those used in Example 3A."}, "UGT1A1": {"target": "T2, UGT1A1 (Homo sapiens, UniProt P22309)", "T2 sequence (P22309 26-533)": "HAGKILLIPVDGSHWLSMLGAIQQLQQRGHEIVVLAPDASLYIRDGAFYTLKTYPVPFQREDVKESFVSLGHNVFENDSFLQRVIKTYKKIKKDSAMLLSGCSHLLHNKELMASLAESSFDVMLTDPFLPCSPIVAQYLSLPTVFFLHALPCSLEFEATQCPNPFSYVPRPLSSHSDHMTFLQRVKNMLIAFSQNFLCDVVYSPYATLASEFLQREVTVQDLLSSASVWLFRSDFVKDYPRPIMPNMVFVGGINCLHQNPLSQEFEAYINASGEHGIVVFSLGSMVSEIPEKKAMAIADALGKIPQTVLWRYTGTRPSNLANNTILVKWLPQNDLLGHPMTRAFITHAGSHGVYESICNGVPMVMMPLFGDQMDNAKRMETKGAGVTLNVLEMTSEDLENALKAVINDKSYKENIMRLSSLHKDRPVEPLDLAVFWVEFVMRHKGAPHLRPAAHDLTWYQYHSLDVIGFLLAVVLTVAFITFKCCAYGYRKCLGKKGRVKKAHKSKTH", "settings": "recombinant enzyme, pH 7.4", "procedure": "as §1, §2, §3, §4, §5"}, "UGT1A9": {"target": "T3, UGT1A9 (Homo sapiens, UniProt O60656)", "T3 sequence (O60656 26-530)": "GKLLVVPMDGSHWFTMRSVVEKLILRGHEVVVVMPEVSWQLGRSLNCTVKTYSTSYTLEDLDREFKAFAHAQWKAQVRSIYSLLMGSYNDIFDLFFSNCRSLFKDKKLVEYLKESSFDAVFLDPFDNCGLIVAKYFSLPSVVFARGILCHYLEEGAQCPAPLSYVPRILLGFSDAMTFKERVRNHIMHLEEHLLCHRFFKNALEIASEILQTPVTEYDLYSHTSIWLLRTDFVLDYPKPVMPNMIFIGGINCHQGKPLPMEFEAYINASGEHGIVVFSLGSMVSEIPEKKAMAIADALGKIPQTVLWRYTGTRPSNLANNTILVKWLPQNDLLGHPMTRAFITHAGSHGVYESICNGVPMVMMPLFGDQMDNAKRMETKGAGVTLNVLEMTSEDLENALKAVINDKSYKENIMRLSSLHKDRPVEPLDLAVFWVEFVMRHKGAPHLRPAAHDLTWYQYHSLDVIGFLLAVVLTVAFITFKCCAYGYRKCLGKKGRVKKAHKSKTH", "settings": "pH 7.4; for half-life at 1 µM / microsomal CLint at 1 µM: recombinant enzyme", "procedure": "as §1, §2, §3, §4, §5"}, "UGT2B7": {"target": "T4, UGT2B7 (Homo sapiens, UniProt P16662)", "T4 sequence (P16662 24-529)": "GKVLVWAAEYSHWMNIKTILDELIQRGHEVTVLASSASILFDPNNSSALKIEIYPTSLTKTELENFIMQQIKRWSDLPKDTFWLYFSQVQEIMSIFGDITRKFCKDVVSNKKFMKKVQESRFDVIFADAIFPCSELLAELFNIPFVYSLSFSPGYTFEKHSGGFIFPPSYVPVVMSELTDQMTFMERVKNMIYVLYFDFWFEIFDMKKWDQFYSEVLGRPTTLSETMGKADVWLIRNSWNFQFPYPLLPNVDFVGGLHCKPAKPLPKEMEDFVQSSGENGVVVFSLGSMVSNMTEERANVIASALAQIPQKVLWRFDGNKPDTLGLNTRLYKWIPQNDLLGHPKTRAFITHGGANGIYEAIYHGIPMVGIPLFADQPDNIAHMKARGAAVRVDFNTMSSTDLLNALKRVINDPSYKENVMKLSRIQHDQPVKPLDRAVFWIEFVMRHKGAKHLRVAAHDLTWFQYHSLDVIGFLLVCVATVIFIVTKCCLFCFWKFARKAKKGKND", "settings": "for half-life at 1 µM / microsomal CLint at 1 µM: human, recombinant enzyme, pH 7.4", "procedure": "as §1, §2, §3, §4, §5"}},
  "data": [
    {"smiles": "CCCCCc1cc(O)c(C/C=C(\\C)CCC=C(C)C)c(O)c1", "note": "[CBG, cannabigerol]", "values": [
      {"measurement": "half-life at 1 µM", "setting": "UGT2B15", "result": 47.6, "unit": "min"},
      {"measurement": "microsomal CLint at 1 µM", "setting": "UGT2B15", "result": 29.1, "unit": "µL/min/mg"},
      {"measurement": "half-life at 1 µM", "setting": "UGT1A1", "result": 77.1, "unit": "min"},
      {"measurement": "microsomal CLint at 1 µM", "setting": "UGT1A1", "result": 18, "unit": "µL/min/mg"},
      {"measurement": "share of UGT1A9 in the activity with CBG for all the UGTs combined", "setting": "UGT1A9; 5 µM", "result": "~80", "unit": "%"},
      {"measurement": "half-life at 1 µM", "setting": "UGT1A9", "result": 1.92, "unit": "min"},
      {"measurement": "microsomal CLint at 1 µM", "setting": "UGT1A9", "result": 721, "unit": "µL/min/mg"},
      {"measurement": "activity of UGT2B7 relative to UGT1A9", "setting": "UGT2B7; CBG as substrate", "result": "approximately 1/10"},
      {"measurement": "half-life at 1 µM", "setting": "UGT2B7", "result": 17.9, "unit": "min"},
      {"measurement": "microsomal CLint at 1 µM", "setting": "UGT2B7", "result": 77.5, "unit": "µL/min/mg"}
    ]},
    {"smiles": "CCCCCc1cc(O)c(C/C=C(\\C)CCC=C(C)C)c(OC)c1", "note": "[Compound 1, (E)-2-(3,7-dimethylocta-2,6-dien-1-yl)-3-methoxy-5-pentylphenol]", "values": [
      {"measurement": "half-life at 1 µM", "setting": "UGT2B15", "result": 57.2, "unit": "min"},
      {"measurement": "microsomal CLint at 1 µM", "setting": "UGT2B15", "result": 24.2, "unit": "µL/min/mg"},
      {"measurement": "half-life at 1 µM", "setting": "UGT1A1", "result": 103, "unit": "min"},
      {"measurement": "microsomal CLint at 1 µM", "setting": "UGT1A1", "result": 13.5, "unit": "µL/min/mg"},
      {"measurement": "half-life at 1 µM", "setting": "UGT1A9", "result": 14, "unit": "min"},
      {"measurement": "microsomal CLint at 1 µM", "setting": "UGT1A9", "result": 99.1, "unit": "µL/min/mg"},
      {"measurement": "half-life at 1 µM", "setting": "UGT2B7", "result": 24.8, "unit": "min"},
      {"measurement": "microsomal CLint at 1 µM", "setting": "UGT2B7", "result": 55.9, "unit": "µL/min/mg"}
    ]},
    {"smiles": "O=c1cc(C(F)(F)F)c2ccc(O)cc2o1", "note": "[7-OH4trifluoromethylcoumarin, 7-hydroxy-4-trifluoromethylcoumarin]", "values": [
      {"measurement": "half-life at 1 µM", "setting": "UGT2B15", "result": 24.9, "unit": "min"},
      {"measurement": "microsomal CLint at 1 µM", "setting": "UGT2B15", "result": 55.8, "unit": "µL/min/mg"},
      {"measurement": "half-life at 1 µM", "setting": "UGT1A1", "result": 33.1, "unit": "min"},
      {"measurement": "microsomal CLint at 1 µM", "setting": "UGT1A1", "result": 41.8, "unit": "µL/min/mg"},
      {"measurement": "half-life at 1 µM", "setting": "UGT1A9", "result": 3.04, "unit": "min"},
      {"measurement": "microsomal CLint at 1 µM", "setting": "UGT1A9", "result": 456, "unit": "µL/min/mg"},
      {"measurement": "half-life at 1 µM", "setting": "UGT2B7", "result": 50.4, "unit": "min"},
      {"measurement": "microsomal CLint at 1 µM", "setting": "UGT2B7", "result": 27.5, "unit": "µL/min/mg"}
    ]}
  ]
}
